A short description of this data set: Storage stability and light sensitivity of trimegestone in powder form. It is filed as physicochemical. The method, then:
Trimegestone is thus a molecule which is in itself stable. However, stability problems can appear during the preparation of tablets or if conventional pharmaceutical compositions comprising trimegestone are stored at 40° C. (dry or damp medium) or under more severe conditions. In particular, the appearance of (20S)-17alpha-methyl-7beta-(1-hydroxy-2-oxo-propyl)-oestra-4,9-dien-3-one, the 21R epimer of trimegestone, or even of oxopromegestone is observed under these conditions.

On to `C[C@H](O)C(=O)[C@@]1(C)CC[C@H]2[C@@H]3CCC4=CC(=O)CCC4=C3CC[C@@]21C` [Trimegestone, (21S)-17alpha-methyl-17beta-(2-hydroxy-1-oxo-propyl)-oestra-4,9-dien-3-one], for which the Sensitivity to light entry was “very low sensitivity to light”. The Stability after storage result (3 months at 70° C. under an inert gas) is “stable”. The Stability after storage result (6 months in a glass pill box at 50° C.) is “stable”.
